US20020028836A1, “Potassium channel openers” (priority 2000, published 2002)
Where two headings read alike, the source gives them in different places.

How the values were obtained:
[1] = system: tissue strips obtained from Landrace pig bladders; test: Functional potassium channel opening activity in isolated bladder strips (field-stimulated twitch); conditions: for Index: ED50 for P1075 divided by ED50 for the test agonist in a given tissue, averaged; for EC50: amount of agent necessary to cause 50% of the agent's maximal response, read-out: ED50 (the source's name)
Procedure, shortened: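 Mucosa-free female Landrace pig bladder strips in Krebs Ringer bicarbonate (pH 7.4, 37° C., 0.004 mM propranolol), 1.0 g preload, field-stimulated at 0.05 Hz, 0.5 ms, 20 V for twitch. Cumulative concentration-response curves; maximal efficacy as % of P1075, ED50 fitted, potency index = P1075 ED50/test ED50 per tissue, averaged.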

[2] = system: bladder contractions in male CD rats; test: In vivo bladder efficacy protocol (isovolumetric contractions model); set-up: species or system rat; conditions: iv, cumulative doses; dose reducing area under the curve of bladder contractions by 30% relative to control; urethane-anesthetized rats
Description: The utility of compounds of the present invention for the treatment of urinary incontinence, bladder overactivity, and bladder instability is illustrated by the ability of compounds of the present invention to inhibit bladder contractions in vivo. The following method is illustrative of the in vivo bladder efficacy of compounds of the present invention.
Male CD rats (400-450 g) were anesthetized with urethane (0.6 g/kg ip+0.6 g/kg sc). The left femoral vein was cannulated with polyethylene (PE-50) tubing for the administration of test compound. A third polyethylene catheter (PE-60) was inserted 3-4 mm into the apex of the bladder dome and secured using a 5-0 silk purse string suture. The bladder was emptied via this catheter and additionally by applying slight manual pressure on the lower abdomen. The urinary catheter was connected using a Y-tube connector to both a pressure transducer and a syringe pump. The urethra was then ligated using 4-0 silk suture and the bladder was slowly filled using a constant infusion of room temperature saline at the rate of 0.1 mL/min until spontaneous rhythmic contractions were evident (1.0-1.3 mL). After the contractions stabilized to a consistent pattern, bladder pressure was monitored for 20 minutes before and after a dose of the vehicle (equal parts of β-cyclodextrin stock solution (100 g β-cyclodextrin dissolved in 200 mL) and sterile water) alone. Then three doses of a test compound were administered cumulatively intravenous (iv) at 20 minute intervals. Each dosing solution (1 mL/kg) was warmed to body temperature before dosing and was infused over 3 minutes to minimize dosing artifacts on the bladder pressure trace. Data were averaged over the last 10 minutes of each period and presented as percent change from control. Area under the curve of the bladder contractions was determined from the respective waveforms using a Modular Instruments, Inc. computerized data acquisition system and averaged over the last ten minutes of each twenty minute period. The doses required to reduce the area under the curve of the bladder contractions by 30% (AUC ED30%) relative to control were estimated using a customized Excel spreadsheet.

[3] = system: primary cultured guinea-pig urinary bladder (GPB) cells; test: Membrane hyperpolarization (MHP) assay, DiBAC(4)3 / FLIPR; format: cell-based; conditions: Cavia porcellus; for EC50: concentration that elicits 50% of the maximal response for the test sample; for Emax: maximal steady-state hyperpolarization, normalized to response with 10 μM P1075 (100%)
Procedure, shortened: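 Primary smooth-muscle cells from male guinea-pig bladder, grown to confluence, loaded 30 min at 37° C with 5 μM DiBAC(4)3 in HEPES buffer pH 7.4. Fluorescence drop on FLIPR followed 25 min after compound; steady-state hyperpolarization normalized to 10 μM P1075 (100%), EC50 from four-parameter fit of five concentrations.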

[4] = Sus scrofa, maximal efficacy relative to P1075, field stimulation 0.05 Hz, 0.5 ms, 20 volts

melting point [°C] | EC50 [3] [µM] | SMILES | Emax [3] [%] | further results
– | – | CC(Cl)(Cl)C(NC(=O)c1cccc(Cl)c1)NC(=NC#N)Nc1ccc(Cl)nc1 (stereo not drawn) [Example 153, 3-chloro-N-(2,2-dichloro-1-{[[(6-chloro-3-pyridinyl)amino](cyanoimino)methyl]amino}propyl)benzamide] | – | Index [1]: 0.014; EC50 ([1]; Sus scrofa): 4.9 µM; Emax [1, 4]: 93%; AUC EC30 [2]: 1 µmol/kg
101 to 103 | 1.6 | CN(C)CC(C)(C)C(NC(=O)c1ccc(Cl)cc1)NC(=NC#N)Nc1cccnc1 (stereo not drawn) [Example 97, 4-chloro-N-[1-{[(cyanoimino)(3-pyridinylamino)methyl]amino}-3-(dimethylamino)-2,2-dimethylpropyl]benzamide] | 74 | –
184 to 186 | 0.78 | Cc1ccc(C(=O)NC(N2CCN(c3cccc(F)c3)C2=S)C(Cl)(Cl)Cl)cc1 (stereo not drawn) [Example 37, 4-methyl-N-{2,2,2-trichloro-1-[3-(3-fluorophenyl)-2-thioxo-1-imidazolidinyl]ethyl}benzamide] | 85 | –
181 to 183 | 0.14 | CC(C)(C1CCCCC1)C(NC(=O)c1ccc(Cl)cc1)NC(=NC#N)Nc1cccnc1 (stereo not drawn) [Example 93, 4-chloro-N-(1-{[(cyanoimino)(3-pyridinylamino)methyl]amino}-2-cyclohexyl-2-methylpropyl)benzamide] | 75 | –
201 to 203 | 0.53 | CC(C)(C1CCCCC1)C(NC(=O)c1ccc(Cl)cc1)NC(=N[N+](=O)[O-])Nc1cccnc1 (stereo not drawn) [Example 130, 4-chloro-N-(1-{[(nitroimino)(3-pyridinylamino)methyl]amino}-2-cyclohexyl-2-methylpropyl)benzamide] | 147 | –
217 to 218 | 0.12 | CC1=C(CC(NC(=O)c2ccc(Cl)cc2)NC(=N[N+](=O)[O-])Nc2cccnc2)C(C)(C)CCC1 (stereo not drawn) [Example 129, 4-chloro-N-[1-{[(nitroimino)(3-pyridinylamino)methyl]amino}-2-(2,6,6-trimethyl-1-cyclohexen-1-yl)ethyl]benzamide] | 132 | –
102 to 104 | 25.5 | CC[C@H](C)[C@H](NC(=O)c1ccc(C)cc1)NC(=S)Nc1cccnc1 [Example 36, 4-methyl-N-((1R,2S)-2-methyl-1-{[(3-pyridinylamino)carbothioyl]amino}butyl)benzamide] | 50 | –
196 to 197 | > 10 | N#CN=C(NCNC(=O)c1ccc(Cl)cc1)Nc1cccnc1 [Example 85, 4-chloro-N-({[(cyanoimino)(3-pyridinylamino)methyl]amino}methyl)benzamide] | < 20 | –
199 to 200 | 0.45 | Cc1ccc(C(=O)NC(NC(=S)Nc2ccc(Cl)nc2)C(F)(F)F)cc1 (stereo not drawn) [Example 7, N-[1-({[(6-chloro-3-pyridinyl)amino]carbothioyl}amino)-2,2,2-trifluoroethyl]-4-methylbenzamide] | 101 | –
192 to 193 | 0.7 | Cc1ccc(NC(=S)NC(NC(=O)c2ccc(C)cc2)C(F)(F)F)cc1 (stereo not drawn) [Example 10, 4-methyl-N-{2,2,2-trifluoro-1-[(4-toluidinocarbothioyl)amino]ethyl}benzamide] | 65 | –
193 to 194 | 1.55 | COc1ccc(NC(=S)NC(NC(=O)c2ccc(C)cc2)C(F)(F)F)cc1 (stereo not drawn) [Example 6, 4-methyl-N-(2,2,2-trifluoro-1-{[(4-methoxyanilino)carbothioyl]amino}ethyl)benzamide] | 107 | –
166 to 168 | 0.14 | O=C(Nc1cccnc1)NC(NC(=O)c1ccc(Cl)cc1)C(Cl)(Cl)Cl (stereo not drawn) [Example 41, 4-chloro-N-(2,2,2-trichloro-1-{[(3-pyridinylamino)carbonyl]amino}ethyl)benzamide] | 98 | –
– | – | CC(Cl)(Cl)C(NC(=O)c1ccc(Cl)cc1)NC(=NC#N)Nc1ccc(Cl)nc1 (stereo not drawn) [Example 160, 4-chloro-N-(2,2-dichloro-1-{[[(6-chloro-3-pyridinyl)amino](cyanoimino)methyl]amino}propyl)benzamide] | – | Index [1]: 0.221; Emax [1, 4]: 98%; EC50 [1]: 0.69 µM; AUC EC30 [2]: 1.7 µmol/kg
181 to 183 | 6 | CCC(NC(=O)c1ccc(Cl)cc1)NC(=NC#N)Nc1cccnc1 (stereo not drawn) [Example 84, 4-chloro-N-(1-{[(cyanoimino)(3-pyridinylamino)methyl]amino}propyl)benzamide] | 69 | –
257 to 259 | 1.21 | Cc1ccc(C(=O)NC(NC(=O)Nc2ccccc2F)C(Cl)(Cl)Cl)cc1 (stereo not drawn) [Example 43, 4-methyl-N-(2,2,2-trichloro-1-{[(2-fluoroanilino)carbonyl]amino}ethyl)benzamide] | 80 | –
104 to 105 | 3.5 | CSCCC(NC(=O)c1ccc(Cl)cc1)NC(=NC#N)Nc1cccnc1 (stereo not drawn) [Example 99, 4-chloro-N-[1-{[(cyanoimino)(3-pyridinylamino)methyl]amino}-3-(methylsulfanyl)propyl]benzamide] | 84 | –
100 to 110 | 0.13 | CCC(CC)(CCC#N)C(NC(=O)c1ccc(Cl)cc1)NC(=N[N+](=O)[O-])Nc1cccnc1 (stereo not drawn) [Example 132, 4-chloro-N-(4-cyano-1-{[(nitroimino)(3-pyridinylamino)methyl]amino}-2,2-diethylbutyl)benzamide] | 124 | –
– | – | CC(C)(C)CC(NC(=O)c1ccc(Cl)cc1)NC(=N[N+](=O)[O-])Nc1cccnc1 (single isomer, unassigned; (-)) [Example 126, (−) 4-chloro-N-(1-{[(nitroimino)(3-pyridinylamino)methyl]amino}-3,3-dimethylbutyl)benzamide] | – | Index [1]: 0.096; EC50 [1]: 3.8 µM; Efficacy (% P1075) ([1]; maximal efficacy relative to P1075, field stimulation 0.05 Hz, 0.5 ms, 20 volts): 94 % P1075; AUC EC30 [2]: 13.5 µmol/kg
193 to 194 | 1 | CC(C)CC(NC(=O)c1ccc(Cl)cc1)NC(=NC#N)Nc1cccnc1 (stereo not drawn) [Example 60, 4-chloro-N-(1-{[(cyanoimino)(3-pyridinylamino)methyl]amino}-3-methylbutyl)benzamide] | 62 | –
182 to 183 | > 10 | CC(C)(Cc1ccccc1)C(NC(=O)c1ccc(Cl)cc1)NC(=NC#N)Nc1cccnc1 (stereo not drawn) [Example 102, 4-chloro-N-(1-{[(cyanoimino)(3-pyridinylamino)methyl]amino}-2,2-dimethyl-3-phenylpropyl)benzamide] | < 20 | –
182 to 184 | 0.46 | Cc1ccccc1C(=O)NC(NC(=O)Nc1cccnc1)C(Cl)(Cl)Cl (stereo not drawn) [Example 39, 2-methyl-N-(2,2,2-trichloro-1-{[(3-pyridinylamino)carbonyl]amino}ethyl)benzamide] | 101 | –
219 to 220 | 2 | O=C(NC(CC12CC3CC(CC(C3)C1)C2)NC(=N[N+](=O)[O-])Nc1cccnc1)c1ccc(Cl)cc1 (stereo not drawn) [Example 134, N-(2-(1-adamantyl)-1-{[(nitroimino)(3-pyridinylamino)methyl]amino}ethyl)-4-chlorobenzamide] | 86 | –
185 to 187 | 0.31 | CCC(CC)C(NC(=O)c1ccc(Cl)cc1)NC(=NC#N)Nc1cccnc1 (stereo not drawn) [Example 59, 4-chloro-N-(1-{[(cyanoimino)(3-pyridinylamino)methyl]amino}-2-ethylbutyl)benzamide] | 73 | –
172 to 175 | 1 | Cc1ccc(C(=O)NC(C)NC(=S)Nc2cccc([N+](=O)[O-])c2)cc1 (stereo not drawn) [Example 29, 4-methyl-N-(1-{[(3-nitroanilino)carbothioyl]amino}ethyl)benzamide] | 28 | –
